Assay [1] addresses T1, ERα (Estrogen Receptor α) (Homo sapiens, UniProt P03372).
T1 construct: gene ESR1; purified ERα supplied with the PolarScreen kit (Invitrogen); construct not described
T1 sequence (P03372 1-595): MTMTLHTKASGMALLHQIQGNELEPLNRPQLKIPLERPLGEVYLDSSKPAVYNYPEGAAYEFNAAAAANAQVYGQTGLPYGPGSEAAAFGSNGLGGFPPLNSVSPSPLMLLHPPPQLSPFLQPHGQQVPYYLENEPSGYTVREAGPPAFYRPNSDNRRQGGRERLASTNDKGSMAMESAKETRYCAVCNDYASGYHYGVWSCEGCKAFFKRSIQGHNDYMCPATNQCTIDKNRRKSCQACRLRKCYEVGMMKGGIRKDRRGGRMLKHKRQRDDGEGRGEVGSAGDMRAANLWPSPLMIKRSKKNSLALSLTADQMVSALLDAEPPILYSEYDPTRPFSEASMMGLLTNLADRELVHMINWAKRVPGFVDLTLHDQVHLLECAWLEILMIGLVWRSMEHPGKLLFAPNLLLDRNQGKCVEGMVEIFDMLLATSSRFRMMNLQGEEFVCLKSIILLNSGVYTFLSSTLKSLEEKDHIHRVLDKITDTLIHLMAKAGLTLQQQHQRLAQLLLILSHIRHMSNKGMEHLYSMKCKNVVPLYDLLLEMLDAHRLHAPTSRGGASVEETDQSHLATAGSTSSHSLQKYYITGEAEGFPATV
As to the kind of experiment: fluorescence polarization competition (PolarScreen). Conditions: read-out: ERα Binding IC50 μM ^1. From the text: fluorescence polarization competition (PolarScreen) on ERα (Estrogen Receptor α)
(Fluorescence polarisation rises when a labelled molecule tumbles more slowly, as on binding a larger partner.)

In a further assay the target is T2, aromatase (AR; CYP19A) (Homo sapiens, UniProt P11511).
T2 construct: gene CYP19A1; construct not described
T2 sequence (P11511 1-503): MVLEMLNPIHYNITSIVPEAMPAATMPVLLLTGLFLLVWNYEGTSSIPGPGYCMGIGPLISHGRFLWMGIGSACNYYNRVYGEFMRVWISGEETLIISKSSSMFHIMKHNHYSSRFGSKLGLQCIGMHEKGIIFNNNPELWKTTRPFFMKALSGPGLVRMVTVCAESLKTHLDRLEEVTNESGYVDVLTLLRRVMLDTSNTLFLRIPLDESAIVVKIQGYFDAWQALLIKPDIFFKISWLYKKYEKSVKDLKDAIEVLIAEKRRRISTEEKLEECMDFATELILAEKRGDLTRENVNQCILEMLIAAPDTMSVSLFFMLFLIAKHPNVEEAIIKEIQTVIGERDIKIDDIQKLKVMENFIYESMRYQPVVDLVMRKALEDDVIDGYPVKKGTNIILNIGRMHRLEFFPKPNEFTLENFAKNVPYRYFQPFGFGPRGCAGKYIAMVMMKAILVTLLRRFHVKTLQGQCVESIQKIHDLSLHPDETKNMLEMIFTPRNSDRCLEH
As to the kind of experiment: fluorometric aromatase inhibition kit. Format: biochemical. Conditions: read-out: AR Inhibition IC50 μM ^1. The text has this: fluorometric aromatase inhibition kit on aromatase (AR; CYP19A)

The IC50 is the point on the concentration scale where inhibition reaches its midpoint. For the compound `O=c1c(Cn2ccnc2)c(-c2ccccc2)oc2cc(O)ccc12` [2b, 3-((1H-imidazol-1-yl)methyl)-7-hydroxy-2-phenyl-4H-chromen-4-one], the IC50 was more than 10 µM in assay [1] and 4 µM at aromatase (AR; CYP19A).

For `O=c1c(Cn2ccnc2)c(-c2ccc([N+](=O)[O-])cc2)oc2cc(O)ccc12` [2a, 3-((1H-imidazol-1-yl)methyl)-7-hydroxy-2-(4-nitrophenyl)-4H-chromen-4-one], the concentration for half-maximal inhibition (IC50) in assay [1] was more than 10 µM; on aromatase (AR; CYP19A) it was 2.1 µM.

Consider `N#Cc1ccc(C(c2ccc(C#N)cc2)n2cncn2)cc1` [Letrozole], for which the IC50 in assay [1] was more than 10 µM.

Turning to `O=c1c(C(c2ccc([N+](=O)[O-])cc2)n2ccnc2)coc2ccccc12` (racemic) [3a], the concentration for half-maximal inhibition (IC50) in assay [1] is more than 10 µM.

With `O=c1c(Cn2ccnc2)c(-c2ccc([N+](=O)[O-])cc2)oc2ccccc12` [1a], the half-maximal inhibitory concentration (IC50) in assay [1] was more than 10 µM.

`O=c1c(C(c2ccccc2)n2ccnc2)coc2cc(O)ccc12` (racemic) [4b, 3-((1H-imidazol-1-yl)(phenyl)methyl)-7-hydroxy-4H-chromen-4-one]: the IC50 is 0.203 µM in assay [1] and 2.2 µM on aromatase (AR; CYP19A).

For the compound `CC/C(=C(\c1ccc(O)cc1)c1ccc(OCCNC)cc1)c1ccccc1` [Endoxifen], the IC50 in assay [1] is 0.043 µM; on aromatase (AR; CYP19A), more than 10 µM.

Consider `O=c1c(C(c2ccccc2)n2ccnc2)coc2ccccc12` (racemic) [3b, 3-((1H-imidazol-1-yl)(phenyl)methyl)-4H-chromen-4-one], for which the values for the concentration for half-maximal inhibition (IC50) (in assay [1]; on aromatase (AR; CYP19A)) were 0.31 µM and 0.5 µM, respectively.

For the compound `O=c1c(Cn2ccnc2)c(-c2ccccc2)oc2ccccc12` [1b], the concentration for half-maximal inhibition (IC50) in assay [1] was more than 10 µM.

As for `O=c1c(C(c2ccc([N+](=O)[O-])cc2)n2ccnc2)coc2cc(O)ccc12` (racemic) [4a, 3-((1H-imidazol-1-yl)(4-nitrophenyl)methyl)-7-hydroxy-4H-chromen-4-one], the IC50 came to 0.595 µM in assay [1] and 0.122 µM on aromatase (AR; CYP19A).

These data come from PMC10096035, “Switching from Aromatase Inhibitors to Dual Targeting Flavonoid-Based Compounds for Breast Cancer Treatment” (Molecules, 2023).
